Test results taken from patent US11166464B2, “Self-assembled active agents” (priority 2017, dated 2021).
Marks after values point to notes of the source that are not given here.

Assays:
Pseudomonas aeruginosa = experiment: MIC and synergy (1/FICI) in cation-adjusted Mueller-Hinton broth, abs600 after 24 h; format: cell-based; settings: for MIC (wt %): component alone, 24 h, 37° C.
Method: (§1) To compare antimicrobial efficacy of self-assembled complexes to their components, fractional inhibitory concentration indices (FICIs) were calculated from measured minimum inhibitory concentrations (MICs) against Pseudomonas aeruginosa and Escherichia coli. The MIC of each substance was determined according to standard guidelines in cation-adjusted Mueller-Hinton broth at a total volume of ˜100 μl with test concentrations decreasing two-fold to span the empirically-determined MIC (J. Med. Chem., 59: 2126-2138 (2016)). Wells contained starting microbe concentrations of approximately 10^7 cells/mL. Absorbance at 600 nm (abs600) was determined immediately after inoculation using a 96 well plate reader. Plates were incubated at 37° C. and abs600 measured after 24 hours. For the purposes of these experiments, minimum inhibitory concentrations are defined as the minimum concentration observed to inhibit microbial growth over this time span, with a change in abs600 less than or equal to 0.1.
Following MIC testing, FICI were calculated as shown in Equation 1: […]
The FICI can be used to quantify the synergy between two components (X and Y). Specifically, 1/FICI can be used as a measure of synergy, interpreted as factors by which the potency of a given combination is greater than the sum of its parts (see Journal of Antimicrobial Chemotherapy, 52:1 (2003)). For example, in the present invention, synergy may be found when the effective amount of the self-assembled active agent is lower than the sum of the effective amounts of the two or more component molecules.
(§2) For the data in Table 2, when multiple components were used to form a complex, the amine component was present in excess of a 1:1 molar ratio.
The MICs determined as per above were then used to calculate FICIs. Note that 1/FICI values varied with subcomponent ratio; unless otherwise noted, the values shown in Table 3 represent a molar ratio of 6:1, amine:aldehyde.

[1] = system: A. brasiliensis ATCC16404; experiment: MIC of aminoguanidine-aldehyde adducts, actives dissolved in all-purpose cleaner and diluted in MH broth; format: cell-based, Aspergillus brasiliensis; settings: subcomponent alone (parent aldehyde, aminoguanidine or biocide standard), not the complex; Table 5
[2] = system: Aspergillus brasiliensis (ATCC 16404); experiment: Viability of microbes in formula over time (log reduction in cell count); format: cell-based; settings: seven days, initial 5 × 10^6 cells/mL; for Log Reduction in APC formula: aminoguanidine complex of the listed aldehyde at 0.1 wt % in all-purpose cleaner; for Log Reduction in MDC formula: aminoguanidine complex of the listed aldehyde at 0.1 wt % in manual dish formula
Method: […] The total volume of the mixture was 5 mL. The inoculated mixture was kept in a shaker at 30° C. for 7 days. Microorganism viability was determined by plating […] of inoculated mixture on MH agar plates on days 0, 3, and 7.
A. Brasiliensis cell counts were monitored and counted over seven days.

[3] = system: Aspergillus brasillensis, ATCC16404; experiment: Preservative test in home cleaning formulations; format: cell-based, Aspergillus brasiliensis; settings: aminoguanidine adducts of the named hydrophilic aldehydes
[4] = system: A. brasiliensis ATCC16404; experiment: MIC of aminoguanidine-aldehyde adducts, actives dissolved in all-purpose cleaner and diluted in MH broth; format: cell-based, Aspergillus brasiliensis; settings: aminoguanidine adduct of the listed aldehyde; 4 × 10^5 spores/mL starting spore counts; Table 4
Method: General procedure for preparation of actives: Complexes were formed by treating 20 mg of aldehyde or ketone with 180 mg of aminoguanidine HCl stock solution (37 wt % aminoguanidine HCl in dH2O) and heating at 60° C. for 48 h. The resulting product mixtures were subsequently screened for antimicrobial activity.

Escherichia coli = experiment: MIC in cation-adjusted Mueller-Hinton broth, abs600 after 24 h; format: cell-based; settings: amine + aldehyde combined, amine in excess of 1:1 molar ratio, E. coli
Method: as §1, §2

For `O=Cc1ccc(C=O)cc1` [Entry 5, terephthalaldehyde], the “MIC (wt %)” value (Pseudomonas aeruginosa; P. aeruginosa) was 0.3^i wt %.

aminoguanidine [B] was tested, and the “MIC (wt %)” value (Pseudomonas aeruginosa; P. aeruginosa) was >2^i wt % and the “MIC (wt %) subcomponent” value [1] was >0.4762 wt %.

With `O=Cc1cccc(C=O)c1Br` [2-bromoisophthalaldehyde] the “Log Reduction in APC formula” value [2] was 2 and the “Log Reduction in MDC formula” value [2] was 1.

In the case of `NC(N)=NN=Cc1ccc(C=NN=C(N)N)cc1` [B + 5], the “MIC (wt %) of complex, given as aldehyde component” value (Pseudomonas aeruginosa; amine + aldehyde combined, amine in excess of 1:1 molar ratio, concentration of aldehyde component, P. aeruginosa) is reported as 0.01^i wt % and the “MIC (wt %) of complex, given as amine component” value (Pseudomonas aeruginosa; amine + aldehyde combined, amine in excess of 1:1 molar ratio, concentration of amine component, P. aeruginosa) is reported as 0.06^i wt %.

For 4-hydroxybenzaldehyde, the “Preservation of the high surfactant manual dish formula” value (from here on “Preservation”) [3] was “enabled effective preservation” and the “MIC (wt %)” value [4] was 0.0298 wt %.

For 2,6-dimethoxybenzaldehyde, the “Preservation” value [3] was “enabled effective preservation” and the “MIC (wt %)” value [4] was 0.0149 wt %.

With glyoxal [Entry 1] the “MIC (wt %)” value (Pseudomonas aeruginosa; P. aeruginosa) was 0.04^i wt %.

With `O=Cc1cc(C=O)cc(C=O)c1` [Entry 7, benzene-1,3,5-tricarboxaldehyde] the “MIC (wt %)” value (Pseudomonas aeruginosa; P. aeruginosa) was 0.3^i wt % and the “Synergism (1/FICI) with B, extrapolated” value (Pseudomonas aeruginosa; extrapolated from eight FICI measurements where the weight ratio of B:7 varied from 1:1 to 9:1) was 1000*.

In the case of `O=Cc1ccc(C=O)o1` [2,5-furandicarboxaldehyde], the “Log Reduction in APC formula” value [2] is reported as 1 and the “Log Reduction in MDC formula” value [2] is reported as 1.

With vanillin isobutyrate the “MIC (wt %)” value [4] was 0.1190 wt %.

With `O=Cc1ccc(C=O)s1` [2,5-thiophenedicarboxaldehyde] the “Log Reduction in APC formula” value [2] was 2 and the “Log Reduction in MDC formula” value [2] was 1.

With 2-hydroxyl-4-methoxybenzaldehyde the “Log Reduction in APC formula” value [2] was 1, the “Log Reduction in MDC formula” value [2] was 1 and the “MIC (wt %)” value [4] was 0.0149 wt %.

In the case of `Cc1cc(C=NN=C(N)N)c(O)c(C=NN=C(N)N)c1` [B + 10], the “MIC (wt %) of complex, given as aldehyde component” value (Escherichia coli; concentration of aldehyde component) is reported as 0.002^ii wt % and the “MIC (wt %) of complex, given as amine component” value (Escherichia coli; concentration of amine component) is reported as 0.02^ii wt %.

`Cl.N=C(NN)NN` [A, 1,3-diaminoguanidine] was tested, and the “MIC (wt %)” value (Pseudomonas aeruginosa; P. aeruginosa) was 0.3^i wt %.

m-anisaldehyde was tested, and the “Preservation” value [3] was “enabled effective preservation” and the “MIC (wt %)” value [4] was 0.0595 wt %.

With 2,4,6-trimethoxybenzaldehyde the “Preservation” value [3] was “enabled effective preservation” and the “MIC (wt %)” value [4] was 0.0595 wt %.

In the case of `COc1ccc(C=O)c(OC)c1` [2,4-dimethoxybenzaldehyde], the “Log Reduction in APC formula” value [2] is reported as 6 and the “Log Reduction in MDC formula” value [2] is reported as 1.
